From patent US8653096B2, “Chemokine receptor antagonists and methods of use thereof” (Millennium Pharmaceuticals, Inc., priority 2001, dated 2014)

Biological target: T1, RANTES/MIP-1α chemokine receptor (CCR1) in THP-1 cell membranes (Homo sapiens, UniProt P32246)
T1 construct: Membranes were prepared from THP-1 cells (ATCC #TIB202); host or cells: THP-1 cells (membrane preparation)
T1 sequence (P32246 1-355): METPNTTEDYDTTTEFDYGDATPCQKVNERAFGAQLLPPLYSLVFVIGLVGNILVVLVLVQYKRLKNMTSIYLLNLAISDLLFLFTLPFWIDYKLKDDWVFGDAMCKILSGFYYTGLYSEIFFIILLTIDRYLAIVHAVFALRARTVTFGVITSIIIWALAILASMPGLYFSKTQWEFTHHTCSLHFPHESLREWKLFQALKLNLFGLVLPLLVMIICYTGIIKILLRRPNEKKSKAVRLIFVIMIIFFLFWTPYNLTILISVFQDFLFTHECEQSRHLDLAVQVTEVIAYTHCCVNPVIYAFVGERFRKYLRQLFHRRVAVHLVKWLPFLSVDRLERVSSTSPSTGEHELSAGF
Test: Receptor binding assay: 125I-RANTES or 125I-MIP-1α binding to THP-1 cell membranes
Settings: not given
Procedure: Membranes were prepared from THP-1 cells (ATCC #TIB202). Cells were harvested by centrifugation, washed twice with PBS (phosphate-buffered saline), and the cell pellets were frozen at −70 to −85° C. The frozen pellet was thawed in ice-cold lysis buffer consisting of 5 mM HEPES (N-2-hydroxyethylpiperazine-N′-2-ethane-sulfonic acid) pH 7.5, 2 mM EDTA (ethylenediaminetetraacetic acid), 5 μg/ml each aprotinin, leupeptin, and chymostatin (protease inhibitors), and 100 μg/ml PMSF (phenyl methane sulfonyl fluoride—also a protease inhibitor), at a concentration of 1 to 5×10^7 cells/ml. This procedure results in cell lysis. The suspension was mixed well to resuspend all of the frozen cell pellet. Nuclei and cell debris were removed by centrifugation of 400×g for 10 minutes at 4° C. The supernatant was transferred to a fresh tube and the membrane fragments were collected by centrifugation at 25,000×g for 30 minutes at 4° C. The supernatant was aspirated and the pellet was resuspended in freezing buffer consisting of 10 mM HEPES pH 7.5, 300 mM sucrose, 1 μg/ml each aprotinin, leupeptin, and chymostatin, and 10 μg/ml PMSF (approximately 0.1 ml per each 10^8 cells). All clumps were resolved using a minihomogenizer, and the total protein concentration was determined using a protein assay kit (Bio-Rad, Hercules, Calif., cat #500-0002). The membrane solution was then aliquoted and frozen at −70 to −85° C. until needed.
Binding Assays utilized the membranes described above. […] The binding reactions were performed in 60 to 100 μl of a binding buffer consisting of 10 mM HEPES pH 7.2, 1 mM CaCl2, 5 mM MgCl2, and 0.5% BSA (bovine serum albumin), for 60 min at room temperature. The binding reactions were terminated by harvesting the membranes by rapid filtration through glass fiber filters (GF/B or GF/C, Packard) which were presoaked in 0.3% polyethyleneimine. The filters were rinsed with approximately 600 μl of binding buffer containing 0.5 M NaCl, dried, and the amount of bound radioactivity was determined by scintillation counting in a Topcount beta-plate counter.
Specific binding is defined as the total binding minus the non-specific binding; non-specific binding is the amount of cpm still detected in the presence of excess unlabeled Rantes or MIP-1α.

Molecule	IC50
CC(C)NC(=O)Oc1ccc2c(c1)C(=CCCN1CCC(O)(c3ccc(Cl)cc3)C(C)(C)C1)c1cccnc1CO2 (stereo not drawn) [Example 547, Isopropyl-carbamic acid 5-{3-[4-(4-chloro-phenyl)-4-hydroxy-3,3-dimethyl-piperidin-1-yl]-propylidene}-5,11-dihydro-10-oxa-1-aza-dibenzo[a,d]cyclohepten-7-yl ester]	< 1000 nM
CC(C)(O)c1ccc2c(c1)C(=CCCN1CCC(C#N)(Nc3ccc(Cl)cc3)CC1)c1cccnc1CO2 [Example 464, 4-(4-Chloro-phenylamino)-1-{3-[7-(1-hydroxy-1-methyl-ethyl)-11H-10-oxa-1-aza-dibenzo[a,d]cyclohepten-5-ylidene]-propyl}-piperidine-4-carbonitrile]	< 1000 nM

Same assay, conditions: inhibitor concentration required for 50% inhibition of specific binding; 125I-RANTES or 125I-MIP-1α as ligand, THP-1 cell membranes; read-out: IC50

Molecule	IC50
O=C(OCCN1CCOCC1)c1ccc2c(c1)C(=CCCN1CCC(O)(c3ccc(Cl)cc3)CC1)c1cccnc1CO2 [Example 430, 4-(4-Chlorophenyl)-1-[3-(5,11-dihydro-7-(2-morpholinoethyl-1-yl)-oxycarbonyl-[1]benzoxepino[2,3-b]pyridin-5-ylidene)propyl]piperidine-4-ol]	< 1000 nM
4-(4-Chlorophenyl)-1-[3-(7-dimethylaminocarbonyl-5,11-dihydro[1]benzoxepino[2,3-b]pyridin-5-ylidene)propyl]piperidin-4-ol [Example 198]	< 1000 nM
CC(C)(CO)Oc1ccc2c(c1)C(=CCCN1CCC(O)(c3ccc(Cl)cc3)CC1)c1cccnc1CO2 [Example 199, 4-(4-Chlorophenyl)-1-[3-(7-(2-(1-hydroxy-2-methyl)propyl)oxy-5,11-dihydro[1]benzoxepino[2,3-b]pyridin-5-ylidene)propyl]piperidin-4-ol]	< 1000 nM
C=C(C)c1ccc2c(c1)C(=CCCN1CCC(c3ccc(Cl)cc3)(C(C)O)CC1)c1cccnc1CO2 (stereo not drawn) [Example 499, 1-{4-(4-Chloro-phenyl)-1-[3-(7-isopropenyl-11H-10-oxa-1-aza-dibenzo[a,d]cyclohepten-5-ylidene)-propyl]-piperidin-4-yl}-ethanol]	< 10000 nM
COc1ccc2c(c1)C(=CCCN1CCC(n3c(=O)n(C)c4ccccc43)CC1)c1cccnc1CO2 [Example 68, 1-[3-(5,11-Dihydro-7-methoxy[1]benzoxepino[2,3-b]pyridin-5-ylidene)propyl]-4-(2-keto-3-methyl-1-benzimidazolinyl)piperidine]	< 10000 nM
OC1(c2ccc(Cl)cc2)CCN(CCC=C2c3cc(Br)ccc3OCc3ccsc32)CC1 [Example 38, 1-[3-(8-Bromo-4,10-dihydrothieno[3,2-c][1]benzoxepin-10-ylidene)propyl]piperidin-4-(4-chlorophenyl)-4-ol]	< 1000 nM
CC(C)(O)c1ccc2c(c1)C(=CCCN1CCC(Oc3ccc(C(F)(F)F)cc3)CC1)c1cccnc1CO2 [Example 497, 2-(5-{3-[4-(4-trifluoromethyl-phenoxy)-piperidin-1-yl]-propylidene}-5,11-dihydro-10-oxa-1-aza-dibenzo[a,d]cyclohepten-7-yl)-propan-2-ol]	< 10000 nM
1-[3-(5,11-Dihydro-7-methoxy[1]benzoxepino[2,3-b]pyridin-5-ylidene)propyl]-4-(4-fluorophenyl)piperidin-4-ol [Example 77]	< 1000 nM
1-[3-(8-Bromo-5,11-dihydro[1]benzoxepino[2,3-b]pyridin-5-ylidene)propyl]-4-(4-chlorophenyl)piperidin-4-ol [Example 54]	< 1000 nM
N#Cc1ccc2c(c1)C(=CCCN1CCC(O)(c3ccc(Cl)cc3)CC1)c1ccccc1CO2 [Example 28, 4-(4-Chlorophenyl)-1-[3-(2-cyano-6,11-dihydrodibenz[b,e]oxepin-11-ylidene)propyl]piperidin-4-ol]	< 1000 nM
OCCCc1ccc2c(c1)C(=CCCN1CCC(O)(c3ccc(Cl)cc3)CC1)c1cccnc1CO2 [Example 289, 4-(4-Chlorophenyl)-1-[3-(7-(1-(3-hydroxy)propyl)-5,11-dihydro[1]benzoxepino[2,3-b]pyridin-5-ylidene)propyl]piperidin-4-ol]	< 1000 nM
CC(C)(O)c1ccc2c(c1)C(=CCCN1CCC(CO)(c3ccc(Cl)cc3)CC1)c1cccnc1CO2 [Example 461, 2-(5-{3-[4-(4-Chloro-phenyl)-4-hydroxymethyl-piperidin-1-yl]-propylidene}-5,11-dihydro-10-oxa-1-aza-dibenzo[a,d]cyclohepten-7-yl)-propan-2-ol]	< 10000 nM
1-(4-Chlorophenylsulfonyl)-4-[3-(5,11-Dihydro-7-methoxy[1]benzoxepino[2,3-b]pyridin-5-ylidene)propyl]piperazine [Example 192]	> 10000 nM
CCOCC1(C)CN(CCC=C2c3cc(C(C)(C)O)ccc3OCc3ncccc32)CCC1(O)c1ccc(Cl)cc1 (stereo not drawn) [Example 484, 4-(4-Chloro-phenyl)-3-ethoxymethyl-1-{3 [7-(-hydroxy-1-methyl-ethyl)-11H-10-oxa-1-aza-dibenzo[a,d]cyclohepten-5-ylidene]-propyl}-3-methyl-piperidin-4-ol]	< 1000 nM
CC(C)(O)c1ccc2c(c1)C(=CCCN1CCC3(CC1)OC(=O)c1cc(Cl)ccc13)c1cccnc1CO2 [Example 472, 5-Chloro-1-{3-[7-(1-hydroxy-1-methyl-ethyl)-11H-10-oxa-1-aza-dibenzo[a,d]-cyclohepten-5-ylidene}-propyl]-spiro[3-oxo-1,3-dihydroisobenzofuran-1,4′-piperidine]]	< 1000 nM
4-(4-Chlorophenyl)-1-[3-(7-(2-ethoxycarboxy)ethyl-5,11-dihydro[1]benzoxepino[2,3-b]pyridin-5-ylidene)propyl]piperidin-4-ol [Example 288]	< 1000 nM
1-[3-(5,11-Dihydro-7-methoxy[1]benzoxepino[2,3-b]pyridin-5-ylidene)propyl]-4-(4-hydroxyphenyl)piperidin-4-ol [Example 142]	< 10000 nM
1-[3-(5,11-Dihydro-7-methoxy[1]benzoxepino[2,3-b]pyridin-5-ylidene)propyl]piperidin-4-ol [Example 61]	< 10000 nM
CCN1C(=O)CN([C@@H]2CCN(CCC=C3c4cc(C(C)(C)O)ccc4OCc4ncccc43)C2)Cc2ccc(Cl)cc21 [Example 535, (R)-8-Chloro-1-ethyl-4-(1-{3[7-(-hydroxy-1-methyl-ethyl)-11H-10-oxa-1-aza-dibenzo[a,d]cyclohepten-5-ylidene]-propyl}-pyrrolidine-3-yl)-1,3,4,5-tetrahydro-benzo[e][1,4]diazepin-2-one]	< 10000 nM
1-(3-Chlorophenylsulfonyl)-4-[3-(5,11-Dihydro-7-methoxy[1]benzoxepino[2,3-b]pyridin-5-ylidene)propyl]piperazine [Example 191]	> 10000 nM
OC1(c2ccc(Cl)cc2)CCN(CCC=C2c3cc(CN4CCOCC4)ccc3OCc3ncccc32)CC1 [Example 278, 4-(4-Chlorophenyl)-1-[3-(5,11-dihydro-7-(4-morpholino)methyl[1]benzoxepino[2,3-b]pyridin-5-ylidene)propyl]piperidin-4-ol]	< 1000 nM
4-(4-Chlorophenyl)-1-[3-(7-cyclopentoxy-5,11-dihydro[1]benzoxepino[2,3-b]pyridin-5-ylidene)propyl]piperidin-4-ol [Example 174]	< 1000 nM
4-(4-Chlorophenyl)-1-[3-(5,11-dihydro-7-ethoxycarbonylmethyloxy[1]benzoxepino[2,3-b]pyridin-5-ylidene)propyl]piperidin-4-ol [Example 48]	< 1000 nM
4-(4-Chlorophenyl)-1-[3-(5,11-dihydro-7-methylaminocarbonyl[1]benzoxepino[2,3-b]pyridin-5-ylidene)propyl]piperidin-4-ol [Example 268]	< 1000 nM
CC(C)(Oc1ccc2c(c1)C(=CCCN1CCC(O)(c3ccc(Cl)cc3)C(C)(C)C1)c1cccnc1CO2)C(N)=O (stereo not drawn) [Example 513, 2-(5-{3-[4-(4-Chloro-phenyl)-4-hydroxy-3,3-dimethyl-piperidin-1-yl]-propylidene}-5,11-dihydro-10-oxa-1-aza-dibenzo[a,d]cyclohepten-7-yloxy)-2-methyl-propionamide]	< 1000 nM
